Values quoted from earlier work, collected in US20170326180A1, “Demineralized Bone Matrix Material having Allogenic Sphingosine-1-Phosphate” (DePuy Synthes Products, Inc., priority 2016, published 2017).

System: mesenchymal stem cells
Details: solution having 0.1 and 1 uM C1P; reported by Kim

## ceramide-1-phosphate [C1P]
  chemotactic activity for mesenchymal stem cells: chemotactic activity
